Test results as given in US5434132A, “Neuropeptide antagonists” (Imperial Cancer Research Technology, Ltd., priority 1988, dated 1995).
Like-named read-outs stand apart in the source and are kept apart here. Non-standard residues stand in square brackets, D forms with d. Residues, ends and D or L forms follow the SMILES beside them. No end group written: not given here. *: point of attachment. X1 = CC(C)C[C@@H](CN[C@@H](CC(C)C)C(N)=O)N*; pGlu = O=C1CC[C@@H](C(=O)O)N1

How the values were obtained:
vasopressin receptor [1] = target: T1, vasopressin receptor (Mus musculus, UniProt Q62463); test: [3H]vasopressin binding to Swiss 3T3 cells; design: species or system murine
T1 construct: endogenous in cells; host or cells: Swiss 3T3 cells
T1 sequence (Q62463 whole entry): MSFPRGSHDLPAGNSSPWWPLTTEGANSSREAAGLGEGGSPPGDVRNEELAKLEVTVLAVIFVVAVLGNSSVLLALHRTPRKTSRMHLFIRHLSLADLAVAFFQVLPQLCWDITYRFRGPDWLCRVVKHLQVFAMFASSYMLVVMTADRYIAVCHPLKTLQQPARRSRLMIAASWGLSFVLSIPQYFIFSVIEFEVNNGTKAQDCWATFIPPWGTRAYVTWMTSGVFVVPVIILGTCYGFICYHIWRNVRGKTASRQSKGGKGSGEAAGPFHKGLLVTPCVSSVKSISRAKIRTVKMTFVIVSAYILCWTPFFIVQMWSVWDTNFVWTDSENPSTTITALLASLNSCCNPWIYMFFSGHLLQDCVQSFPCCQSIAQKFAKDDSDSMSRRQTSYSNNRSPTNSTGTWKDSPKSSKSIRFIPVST

bombesin/GRP receptor [2] = target: T2, bombesin/GRP receptor (Mus musculus, UniProt P21729); test: 125I-GRP binding to membrane preparations of Swiss 3T3 cells; design: species or system murine; conditions: addition at 1μM; 0.5 nM 125I-GRP, 37° C., 10 minutes; None 305 ± 9; mean±SEM, n=3
T2 construct: Membrane protein (150 μg) prepared from Swiss 3T3 cells as described above; endogenous in cells; host or cells: Swiss 3T3 cells; membrane-enriched fraction prepared with 5 mM Mg2+
T2 sequence (P21729 whole entry): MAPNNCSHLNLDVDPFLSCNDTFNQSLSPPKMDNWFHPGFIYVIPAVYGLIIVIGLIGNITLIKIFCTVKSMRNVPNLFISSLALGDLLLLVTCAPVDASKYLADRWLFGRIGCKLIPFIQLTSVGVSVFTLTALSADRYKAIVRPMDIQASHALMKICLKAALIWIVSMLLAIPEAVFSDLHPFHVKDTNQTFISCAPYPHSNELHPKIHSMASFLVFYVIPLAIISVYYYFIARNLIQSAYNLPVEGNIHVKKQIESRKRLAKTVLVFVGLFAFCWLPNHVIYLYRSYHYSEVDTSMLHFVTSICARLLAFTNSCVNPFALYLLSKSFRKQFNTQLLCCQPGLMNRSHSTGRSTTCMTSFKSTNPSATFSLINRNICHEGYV
Procedure: Membrane preparation: Cultures in roller bottles were washed twice with 150 ml phosphate buffered saline (PBS) (0.14M NaCl, 5 mM KCl, 0.01M Na2 HPO4, 1.8 mM KH2 PO4; pH 7.2) at room temperature. The cells were then harvested at 4° C. by scraping into ice cold PBS containing 5 mM MgCl2, 1 mM [ethylenebis(oxyethylenenitrilo)]tetraacetic acid (EGTA), 1 mg/ml bacitracin, 10 ug/ml aprotonin, 1 mg/ml soybean trypsin inhibitor and 50 μM phenylmethylsulphonyl fluoride. All subsequent steps were carried out at 4° C. The cells were pelleted by centrifugation at 750 x g for 10 minutes and resuspended 5×10^6 /ml in solution A containing 50 mM 4-(2-Hydroxyethyl)-1-piperazineethanesulfonic acid (Hepes), 5 mM MgCl2, 1 mM EGTA, 1 mg/ml bacitracin, 10 μg/ml aprotonin, 1 mg/ml soybean trypsin inhibitor and 50 μM phenylmethylsulfonyl fluoride, adjusted to pH 7.4 with NaOH at 4° C. Cells were then disrupted using a Dounce homogeniser (A pestle) 75 strokes. The homogenate was centrifuged at 500 x g for 10 minutes to remove nuclear material and intact cells and the supernatant was centrifuged again at 30000 x g for 30 minutes. The resulting pellet, representing a membrane-enriched preparation was resuspended at a protein concentration of 5 to 10 mg/ml in solution A and stored in liquid nitrogen. For experiments, membranes were thawed and diluted to a concentration of 1 mg/ml with solution A.
Receptor binding assay: Binding assays were carried out in a total volume of 100 ul in binding medium containing 50 mM Hepes, 5 mM MgCl2, 1 mg/ml bacitracin and 1% bovine serum albumin (BSA), adjusted to pH 7.4 with NaOH, unless otherwise indicated. […] Non-specific binding was subtracted from the total binding to obtain specific binding. The membranes were incubated for either 10 minutes at 37° C. or 30 minutes: at 15° C. as indicated.
The binding reactions were terminated at the specified times by rapid filtration on GF/B glass fibre filters (Whatmann, 1.0 μm pore size). Each filter was washed five times with 5 ml of PBS containing 1% BSA at 4° C. (15 s total time) using a Millipore filtration apparatus. Before the addition of membranes the filters were soaked for 24 hours in 5% polyethylenimine at 4° C. and washed with 5 ml of PBS containing 1% BSA immediately prior to use. […] Radioactivity was determined with a Beckmann γ-counter.
When 1n[(Beq - Bt)/(BoLo - Beq Bt)]is plotted as a function of time k1 can be determined from the slope by the following relation k1 =slope x [Beg/(Beg^2 - BoLo)](36) where Bo and Lo are the initial concentrations of receptor and ligand respectively. Bt is the concentration of receptor-ligand complex at time t and Beg is its concentration at equilibrium. Equation (1) takes into account the decrease in free ligand concentration that occurs during the binding reaction.
The first order rate constant of dissociation was determined from the slope of the line obtained by plotting ln(Bt/Beg) as a function of time.
The reactions were terminated and specific binding determined as described in "Experimental Procedures".

Swiss 3T3 cells [3] = test: Cytosolic Ca2+ concentration in Fura-2 loaded Swiss 3T3 cells; assay type: cell-based, murine; conditions: Fura-2 loaded cells
bombesin/GRP receptor [4] = target: T2, bombesin/GRP receptor; test: [125I]GRP binding to intact Swiss 3T3 cells; design: species or system murine; conditions: 37° C.
Mr 75,000-85,000 protein = target: T3, Mr 75,000-85,000 protein (Mus musculus, UniProt P21729); test: Chemical cross-linking (EGS) of 125I-GRP to the Mr 75,000-85,000 protein in Swiss 3T3 membranes; assay type: binding, murine; conditions: 10 min, read-out: 125I-GRP affinity labelling of the Mr 75,000-85,000 protein
T3 construct: Membrane protein (150 μg) prepared from Swiss 3T3 cells as described above; endogenous in cells; host or cells: Swiss 3T3 cells; membrane-enriched fraction prepared with 5 mM Mg2+
T3 sequence (P21729 whole entry): as above
Procedure: BSA was omitted from all solutions used in the cross-linking studies. At the end of the incubation the membranes were centrifuged at 1000 rpm for 1 minute in a MSE microfuge at room n temperature. The pellets were then resuspended in cross-linking medium containing 4 mM of the cross-linking reagent (EGS) and incubated at 37° C. or 15° C. for 5 minutes or 15 minutes respectively. The reaction was terminated by centrifugation for 1 minute followed by one wash with cross-linking medium and centrifugation. Samples were solubilised in 0.20 ml of 2× sample buffer, (0.2 M Tris-HCl pH 6.8, 10% (w/v) glycerol, 6% sodium dodecyl sulphate (SDS) (w/v), 4% β-mercaptoethanol (v/v), and 2 mM EDTA), immediately heated to 100° C. for 10 minutes and analysed by one dimensional electrophoresis.
SDS-Polyacrylaaide Gel glectrophoresis: Slab gel electrophoresis was performed using 8% acrylamide in the separating gel and 4% in the stacking gel and 0.1% SDS (37). After electrophoresis gels were stained, desrained and dried down onto paper for autoradiography with Fuji x-ray film. Dried gels were exposed for 2-4 days at -70° C. Autoradiograms were scanned using an LKB ultrascan XL densitometer; and the incorporation of radioactivity into the Mr 75,000-85,000 band was quantified using the Ultroscan XL internal digital integrator.
Following incubation at 37° C. for 10 minutes the membranes were pelleted by centrifugation and chemical cross-linking carried out as described in "Experimental Procedures" using 4 mM EGS. The samples were analyzed by SDS-PAGE and scanning densitometry of the autoradiograms as described in "Experimental Procedures".

Swiss 3T3 cells [5] = test: Stimulation of DNA synthesis in Swiss 3T3 cells; assay type: cell-based, murine; conditions: in the presence of insulin
Swiss 3T3 cells [6] = system: Swiss 3T3 cells
Swiss 3T3 cells [7] = test: Mitogenesis stimulated by VIP in Swiss 3T3 cells; assay type: cell-based, murine
[8] = system: guinea pig pancreatic acini; conditions: read-out: 50% inhibition (IC50) of bombesin-stimulated amylase release; cited from earlier work
Swiss 3T3 cells [9] = test: Vasopressin-induced DNA synthesis in Swiss 3T3 cells; assay type: cell-based, murine
Swiss 3T3 cells [10] = system: Swiss 3T3 cells; remark: listed apart in the source
Swiss 3T3 cells [11] = assay type: cell-based, murine
Swiss 3T3 cells [12] = test: Ca2+ mobilisation elicited by GRP in Swiss 3T3 cells; assay type: cell-based, murine; conditions: 5 secs
[13] = target: T4, Mr 75,000-85,000 glycoprotein component of the receptor (Mus musculus, UniProt P21729); test: Cross-linking of [125I]GRP to the Mr 75,000-85,000 glycoprotein in intact Swiss 3T3 cells; assay type: binding, murine; conditions: 1 nM [125I]GRP, 24° C.
T4 construct: endogenous in cells; host or cells: Swiss 3T3 cells (intact, confluent and quiescent)
T4 sequence (P21729 whole entry): as above
Procedure: Methods: Swiss 3T3 cells were maintained in culture and assays of DNA synthesis performed as previously described 2,4,6 In all the figures, values shown represent the mean of at least 2 determinations. […] After 10 mins they were washed twice with binding medium, then incubated at 24° C. in 1 ml containing […] ethylene glycol bis(succinimidylsuccinate) at pH 7.4. After 10 mins they were washed twice with cold binding medium and solubilised in 100 μl sample buffer^8,then immediately boiled for 5 mins, and electrophoresed on a 10% polyacrylamide gel.

Swiss 3T3 cells [14] = test: EGF receptor transmodulation elicited by GRP in Swiss 3T3 cells; assay type: cell-based, murine; conditions: 1 min
Swiss 3T3 cells [15] = conditions: references 4,12,13; cited from earlier work
[16] = system: small cell lung cancer (SCLC) cell lines; test: Growth in vitro of small cell lung cancer (SCLC) cell lines
[17] = system: bombesin/GRP, bradykinin and vasopressin receptors; test: Mitogenic responses elicited through bombesin/GRP, bradykinin and vasopressin receptors; assay type: cell-based, murine
Swiss 3T3 cells [18] = conditions: earlier patent application and references 10, 11; cited from earlier work
vasopressin receptor [19] = target: T1, vasopressin receptor; conditions: references 4,12,13; cited from earlier work

RPPGFSPFR [Bradykinin, bradykinin]
inhibition of [3H]vasopressin binding (vasopressin receptor [1]): did not inhibit
specific binding of 125I-GRP to membranes (bombesin/GRP receptor [2]): 302 ± 9 fmole/mg protein
change in cytosolic Ca2+ concentration (Swiss 3T3 cells [3]): rapid and transient increase
inhibition of specific binding of [125I]GRP to the cells (bombesin/GRP receptor [4]): did not inhibit
remaining activity at 1 µM (Mr 75,000-85,000 protein): 95 ± 3%
stimulation of DNA synthesis (Swiss 3T3 cells [5]): maximal stimulation

CC(C)C[C@@H](CN[C@@H](CC(C)C)C(N)=O)NC(=O)[C@H](Cc1c[nH]cn1)NC(=O)CNC(=O)[C@@H](NC(=O)[C@H](C)NC(=O)[C@H](Cc1c[nH]c2ccccc12)NC(=O)[C@H](CCC(N)=O)NC(=O)[C@H](CC(N)=O)NC(=O)CNC(=O)[C@H](CC(C)C)NC(=O)[C@H](CCCNC(=N)N)NC(=O)[C@H](CCC(N)=O)NC(=O)[C@@H]1CCC(=O)N1)C(C)C [[Leu^13 -.PSI.(CH2 NH)Leu^14]bombesin] ([pGlu]QRLGNQWAVGH-X1; C-terminus assumed)
effect against DNA synthesis induced by various bombesin-like peptides (Swiss 3T3 cells [6]): effective
inhibition of GRP-induced DNA synthesis (Swiss 3T3 cells [6]): strongly inhibited
inhibition of mitogenesis stimulated by VIP (Swiss 3T3 cells [7]): Neither antagonist D nor [Leu^13 -.PSI.(CH2 NH)Leu^14 ]bombesin inhibited
IC50 [8]: 0.035 µM
inhibition of vasopressin-induced DNA synthesis (Swiss 3T3 cells [9]): no effect
effect on bradykinin-stimulated DNA synthesis (Swiss 3T3 cells [10]; 1 μM L.PSI.LB): no effect
inhibition of mitogenesis stimulated by EGF, PDGF, phorbol dibutyrate, cholera toxin and 8-bromo-cAMP (Swiss 3T3 cells [11]): Neither of them inhibited
block of Ca2+ mobilisation elicited by GRP (Swiss 3T3 cells [12]): blocked
block of cross-linking of [125I]GRP to the Mr 75,000-85,000 glycoprotein [13]: blocked
block of EGF receptor transmodulation elicited by GRP (Swiss 3T3 cells [14]): blocked
inhibition of specific binding of [125I]GRP to the cells (bombesin/GRP receptor [4]): inhibited

CC(C)C[C@H](NC(=O)[C@H](CC(C)C)NC(=O)[C@@H](Cc1c[nH]c2ccccc12)NC(=O)[C@H](Cc1ccccc1)NC(=O)[C@@H](Cc1c[nH]c2ccccc12)NC(=O)[C@H](CCC(N)=O)NC(=O)[C@@H](Cc1ccccc1)NC(=O)[C@@H]1CCCN1C(=O)[C@H](CCCCN)NC(=O)[C@@H]1CCCN1C(=O)[C@H](N)CCCNC(=N)N)C(N)=O [antagonist D, D-Arg-Pro-Lys-Pro-D-Phe-Gln-D-Trp-Phe-D-Trp-Leu-Leu-NH2] (H-[dR]PKP[dF]Q[dW]F[dW]LL-NH2)
effect against DNA synthesis induced by various bombesin-like peptides (Swiss 3T3 cells [6]; 20 μM antagonist D or 1 μm L.PSI.LB, GRP 3.6 nM, bombesin 1.2 nM, litorin 1.8 nM): effective
inhibition of vasopressin-stimulated DNA synthesis (Swiss 3T3 cells [15]): inhibit
potency relative to Antagonist A in inhibiting growth of SCLC [16]: 5-10 fold
inhibition of mitogenesis stimulated by VIP (Swiss 3T3 cells [7]; VIP 3.0 nM, 20 μM antagonist D or 1 μm L.PSI.LB): Neither antagonist D nor [Leu^13 -.PSI.(CH2 NH)Leu^14 ]bombesin inhibited
inhibition of vasopressin-induced DNA synthesis (Swiss 3T3 cells [9]; 1 uM L.PSI.LB or antagonist D): potent inhibitor
IC50 (Swiss 3T3 cells [10]): 8.3 µM
inhibition of mitogenesis stimulated by EGF, PDGF, phorbol dibutyrate, cholera toxin and 8-bromo-cAMP (Swiss 3T3 cells [11]; 20 μM antagonist D or 1 μm L.PSI.LB): Neither of them inhibited
potency relative to antagonist A against each mitogen [17]: 5-10 fold
potency as bombesin antagonist relative to antagonist A (Swiss 3T3 cells [18]): 5-10 fold
inhibition of [3H]vasopressin binding (vasopressin receptor [19]): inhibit
